System: α-synuclein cytotoxicity in M17-SYNwt cells
Assay: α-synuclein cytotoxicity assay: LDH leakage from paraquat-treated M17-SYNwt neuroblastoma cells;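 further: paraquat at 32 mM co-added with compound, 40 h exposure, LDH activity released into the culture medium measured, references are DMSO-only cells and paraquat plus DMSO cells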
Conditions: Homo sapiens, Neuroblastoma cell; for Emax: read-out: % Inhib.

| Compound | EC50 [µM] | Emax [%] |
| --- | --- | --- |
| Cc1ccc(Cc2nsc(N3CCN(C(=O)c4ccccc4F)C(C)C3)n2)cc1 (stereo not shown) [compound 149, 1-(2-fluorobenzoyl)-4-[3-(4-methylbenzyl)-1,2,4-thiadiazol-5-yl]-2-methylpiperazine] | 0.98 | 105 |
| Cc1ccccc1C(=O)N1CCN(c2nc(Cc3ccc(F)cc3)ns2)CC1 [compound 152, 1-(2-methylbenzoyl)-4-[3-(4-fluorobenzyl)-1,2,4-thiadiazol-5-yl]piperazine] | 1.15 | 66 |
| Cc1ccc(Cc2nsc(N3CCN(C/C=C/c4ccccc4)CC3)n2)cc1 [compound 91, 1-[3-phenylprop-2-enyl]-4-[3-(4-methylbenzyl)-1,2,4-thiadiazol-5-yl]piperazine] | 0.71 | 90 |
| Cc1ccc(Cc2nsc(N3CCN(S(=O)(=O)c4c(C)cc(C)cc4C)CC3)n2)cc1 [compound 37, 1-[2,4,6-trimethylphenylsulfonyl]-4-[3-(4-methylbenzyl)-1,2,4-thiadiazol-5-yl]piperazine] | 0.0731 | 48 |
| COc1ccccc1C(=O)N1CCN(c2nc(Cc3ccc(F)cc3)ns2)CC1C (stereo not shown) [compound 133, 1-(2-methoxybenzoyl)-4-[3-(4-fluorobenzyl)-1,2,4-thiadiazol-5-yl]-2-methylpiperazine] | 0.29 | 118 |
| O=C(c1ccc(Cl)cc1)N1CCCN(c2nc(Cc3ccc(F)cc3)ns2)CC1 [compound 189, 1-(4-chlorobenzoyl)-4-[3-(4-fluorobenzyl)-1,2,4-thiadiazol-5-yl]-1,4-diazepane] | 0.17 | 85 |
| Cc1ccc(Cc2nsc(N3CCN(S(=O)(=O)c4cccc(C(F)(F)F)c4)CC3)n2)cc1 [compound 62, 1-[3-trifluoromethylphenylsulfonyl]-4-[3-(4-methylbenzyl)-1,2,4-thiadiazol-5-yl]piperazine] |  | 45 |
| Fc1ccc(Cc2nsc(N3CCN(c4cccc(C(F)(F)F)c4)CC3)n2)cc1 [compound 188, 1-(3-trifluoromethylphenyl)-4-[3-(4-fluorobenzyl)-1,2,4-thiadiazol-5-yl]piperazine] |  | 96 |
| Cc1ccc(C(=O)N2CCCN(c3nc(Cc4ccc(F)cc4)ns3)CC2)cc1 [compound 190, 1-(4-methylbenzoyl)-4-[3-(4-fluorobenzyl)-1,2,4-thiadiazol-5-yl]-1,4-diazepane] | 2.77 | 87 |
| CC1CN(c2nc(Cc3ccc(F)cc3)ns2)CCN1C(=O)Nc1ccc(F)c(F)c1 (stereo not shown) [compound 26, N-(3,4-difluorophenyl)-4-[3-(4-fluorobenzyl)-1,2,4-thiadiazol-5-yl]-2-methylpiperazine-1-carboxamide] |  | 70 |
| Clc1ccc(Cc2nsc(N3CCN(C/C=C/c4ccccc4)CC3)n2)cc1 [compound 92, 1-[3-phenylprop-2-enyl]-4-[3-(4-chlorobenzyl)-1,2,4-thiadiazol-5-yl]piperazine] | 0.75 | 69 |
| Cc1ccc(Cc2nsc(N3CCN(C(=O)c4ccc(F)cc4)C(C)C3)n2)cc1 (stereo not shown) [compound 151, 1-(4-fluorobenzoyl)-4-[3-(4-methylbenzyl)-1,2,4-thiadiazol-5-yl]-2-methylpiperazine] | 1.14 | 73 |
| CC(=O)Nc1ccc(S(=O)(=O)N2CCN(c3nc(Cc4ccc(C)cc4)ns3)CC2)cc1 [compound 49, 1-[4-acetamidophenylsulfonyl]-4-[3-(4-methylbenzyl)-1,2,4-thiadiazol-5-yl]piperazine] | 0.000106 | 77 |
| O=C(NCCN1CCN(c2nc(Cc3ccc(F)cc3)ns2)CC1)c1ccc(Cl)cc1 [compound 97, 4-chloro-N-{2-[4-[3-(4-fluorobenzyl)-1,2,4-thiadiazol-5-yl]piperazin-1-yl]ethyl}benzamide] | 1.29 | 68 |
| Cc1ccc(Cc2nsc(N3CCN(S(=O)(=O)c4ccc(F)cc4)C(C)C3)n2)cc1 (stereo not shown) [compound 58, 1-[4-fluorophenylsulfonyl]-4-[3-(4-methylbenzyl)-1,2,4-thiadiazol-5-yl]-2-methylpiperazine] | 0.061 | 58 |
| CCc1ccc(C(=O)N2CCN(c3nc(Cc4ccc(C)cc4)ns3)CC2C)cc1 (stereo not shown) [compound 147, 1-(4-ethylbenzoyl)-4-[3-(4-methylbenzyl)-1,2,4-thiadiazol-5-yl]-2-methylpiperazine] | 0.84 | 88 |
| COc1ccc(S(=O)(=O)N2CCN(c3nc(Cc4ccccc4F)ns3)CC2)cc1 [compound 194, 1-[4-methoxyphenylsulfonyl]-4-[3-(2-fluoro-benzyl)-1,2,4-thiadiazol-5-yl]piperazine] | 0.0027 | 102 |
| O=S(=O)(c1ccccc1)N1CCN(c2nc(Cc3ccc(F)cc3)ns2)CC1 [compound 198, 1-phenylsulfonyl-4-[3-(4-fluoro-benzyl)-1,2,4-thiadiazol-5-yl]piperazine] | 0.349 | 25 |
| O=C(c1cc(Cl)cc(Cl)c1)N1CCN(c2nc(Cc3ccc(F)cc3)ns2)CC1 [compound 137, 1-(3,5-dichlorobenzoyl)-4-[3-(4-fluorobenzyl)-1,2,4-thiadiazol-5-yl]piperazine] | 0.35 | 68 |

| Compound | EC50 [µM] | Emax [%] |
| --- | --- | --- |
| CC1CN(c2nc(Cc3ccc(F)cc3)ns2)CCN1C(=O)c1ccc([N+](=O)[O-])cc1Cl (stereo not shown) [compound 177, 1-(2-chloro-4-nitrobenzoyl)-4-[3-(4-fluorobenzyl)-1,2,4-thiadiazol-5-yl]-2-methylpiperazine] |  | 77 |
| CCC(C(=O)NCCN1CCN(c2nc(Cc3ccc(F)cc3)ns2)CC1)c1ccccc1 (stereo not shown) [compound 111, 2-phenyl-N-{2-[4-[3-(4-fluorobenzyl)-1,2,4-thiadiazol-5-yl]piperazin-1-yl]ethyl}butanamide] | 1.79 | 79 |
| CC1CN(c2nc(Cc3ccc(F)cc3)ns2)CCN1C(=O)c1ccc2ccccc2c1 (stereo not shown) [compound 132, 1-(2-naphthoyl)-4-[3-(4-fluorobenzyl)-1,2,4-thiadiazol-5-yl]-2-methylpiperazine] | 0.26 | 74 |
| Cc1ccc(Cc2nsc(N3CCN(S(=O)(=O)c4ccc(Br)cc4)CC3)n2)cc1 [compound 64, 1-[4-bromophenylsulfonyl]-4-[3-(4-methylbenzyl)-1,2,4-thiadiazol-5-yl]piperazine] |  | 58 |
| CC1CN(c2nc(Cc3ccc(F)cc3)ns2)CCN1C(=O)c1ccc(C(C)(C)C)cc1 (stereo not shown) [compound 128, 1-(4-tert-butylbenzoyl)-4-[3-(4-fluorobenzyl)-1,2,4-thiadiazol-5-yl]-2-methylpiperazine] | 0.24 | 95 |
| CC1CN(c2nc(Cc3ccc(F)cc3)ns2)CCN1C(=O)c1cccc(Cl)c1 (stereo not shown) [compound 122, 1-(3-chlorobenzoyl)-4-[3-(4-fluorobenzyl)-1,2,4-thiadiazol-5-yl]-2-methylpiperazine] | 0.14 | 92 |
| CC1CN(c2nc(Cc3ccccc3)ns2)CCN1C(=O)c1ccc(F)cc1 (stereo not shown) [compound 154, 1-(4-fluorobenzoyl)-4-[3-benzyl-1,2,4-thiadiazol-5-yl]-2-methylpiperazine] | 1.58 | 75 |
| CC(=O)Nc1ccc(S(=O)(=O)N2CCN(c3nc(Cc4ccc(F)cc4)ns3)CC2C)cc1 (stereo not shown) [compound 55, 1-[4-acetamidophenylsulfonyl]-4-[3-(4-fluorobenzyl)-1,2,4-thiadiazol-5-yl]-2-methylpiperazine] | 0.0781 | 114 |
| CCCCc1ccc(C(=O)NCCN2CCN(c3nc(Cc4ccc(F)cc4)ns3)CC2)cc1 [compound 95, 4-butyl-N-{2-[4-[3-(4-fluorobenzyl)-1,2,4-thiadiazol-5-yl]piperazin-1-yl]ethyl}benzamide] | 0.38 | 78 |
| Cc1ccc(Cc2nsc(N3CCN(S(=O)(=O)c4ccc([N+](=O)[O-])cc4)C(C)C3)n2)cc1 (stereo not shown) [compound 71, 1-[4-nitrophenylsulfonyl]-4-[3-(4-methylbenzyl)-1,2,4-thiadiazol-5-yl]-2-methylpiperazine] |  | 33 |
| O=C(c1ccc(F)cc1)N1CCN(c2nc(Cc3ccccc3)ns2)CC1 [compound 163, 1-(4-fluorobenzoyl)-4-[3-benzyl-1,2,4-thiadiazol-5-yl]piperazine] | 3.61 | 67 |
| Cc1ccc(Cc2nsc(N3CCN(C(=O)c4ccc(C(F)(F)F)cc4)CC3)n2)cc1 [compound 171, 1-(4-trifluoromethylbenzoyl)-4-[3-(4-methylbenzyl)-1,2,4-thiadiazol-5-yl]piperazine] |  | 86 |
| CC1CN(c2nc(Cc3ccc(F)cc3)ns2)CCN1C(=O)/C=C/c1ccccc1 (stereo not shown) [compound 87, 1-[(2E)-3-phenylprop-2-enoyl]-4-[3-(4-fluorobenzyl)-1,2,4-thiadiazol-5-yl]-2-methylpiperazine] | 2.49 | 94 |
| CCCCc1ccc(C(=O)N2CCN(c3nc(Cc4ccc(C)cc4)ns3)CC2C)cc1 (stereo not shown) [compound 117, 1-(4-butylbenzoyl)-4-[3-(4-methylbenzyl)-1,2,4-thiadiazol-5-yl]-2-methylpiperazine] | 0.0841 | 82 |
| O=C(Cc1ccc(F)cc1)N1CCN(c2nc(Cc3ccc(F)cc3)ns2)CC1 [compound 2, 4-(4-fluorophenylacetyl),-1-[3-(4-fluorobenzyl)-1,2,4-thiadiazol-5-yl]piperazine] | 0.25 | 54 |
| Cc1ccc(C(=O)NCCN2CCN(c3nc(Cc4ccc(F)cc4)ns3)CC2)cc1 [compound 101, 4-methyl-N-{2-[4-[3-(4-fluorobenzyl)-1,2,4-thiadiazol-5-yl]piperazin-1-yl]ethyl}benzamide] | 1.94 | 68 |
| Cc1ccc(Cc2nsc(N3CCN(C(=O)Cc4ccc(F)cc4)C(C)C3)n2)cc1 (stereo not shown) [compound 3, 1-(4-fluorophenylacetyl)-4-[3-(4-methylbenzyl)-1,2,4-thiadiazol-5-yl]-2-methylpiperazine] | 2.2 | 76 |
| Cc1ccc(Cc2nsc(N3CCN(C(=O)c4cccc(F)c4)C(C)C3)n2)cc1 (stereo not shown) [compound 156, 1-(3-fluorobenzoyl)-4-[3-(4-methylbenzyl)-1,2,4-thiadiazol-5-yl]-2-methylpiperazine] | 1.67 | 86 |
